{"source": "patent US7427670B2", "about": "“Cytochrome P450 24 (CYP24) monoclonal antibody and methods and uses thereof” (Cytochroma Inc., priority 2003, dated 2008)", "system": "CYP24 protein in HEK cells", "assay": "CYP24 protein expression in HEK cells, Western blot with anti-CYP24 mAb and densitometric analysis", "type": "cell-based, human", "settings": "10 nM", "procedure": "• Human Epidermal Keratinocyte Cells (HEK) cells (CYP24 expressing cells) • Keratinocyte Growth Medium (KGM®; Cambrex) • HEK Cell Lysis Buffer (0.5 M Tris, pH 6.8, 10% SDS, glycerol, dH2O, protease inhibitor) • 1.7 ml eppendorf tubes • Isopropanol • Enhanced Chemiluminescense (ECL) Western Blotting Detection Reagants (Amersham Pharmacia) • 10 nM Calcitriol (Vitamin D) • 10 nM CTAX (Cytochroma Inc.) (“Vitamin D analog”) • 10 nM CTAY (Cytochroma Inc.) (“Vitamin D analog”) • 10 nM CTAZ (Cytochroma Inc.) (“Vitamin D analog”) • 6-well plates (i) HEK Cell Preparation Method:\n125 thousand HEK cells per well were placed in 2.5 ml KGM® (2 plates) and incubated overnight @ 37° C. in 5% CO2. After 24 hours, old KGM® was replaced with fresh 2.5 ml KGM®. For 48 hour samples (Plate 1): 2.5 μl isopropanol was added to 1 well; 2.5 μl 10 μM calcitriol was added to 1 well; 2.5 μl 10 μM CTAX was added to 1 well; 2.5 μl 10 μM CTAY was added to 1 well; 2.5 μl […] was added to 1 well. […]\nThe effect of CYP24 protein expression in HEK cells treated with CYP24 inhibitors was investigated. […] Cell lysates were then analyzed for CYP24 protein by Western blot analysis using anti-CYP24 mAb as the primary antibody. Each sample was expressed as a relative amount of CYP24 protein compared to the control (control=1 unit).", "data": [{"compound": "C=C1/C(=C\\C=C2/CCC[C@]3(C)[C@@H]([C@H](C)CCCC(C)(C)O)CC[C@@H]23)C[C@@H](O)C[C@@H]1O", "note": "[Calcitriol]", "values": [{"measurement": "induction of CYP24 protein (relative to control = 1 unit)", "setting": "24 hours", "value": "weakly induces"}, {"measurement": "induction of CYP24 protein (relative to control = 1 unit)", "setting": "48 hours", "value": "weakly induces"}]}]}
